From patent US20230301909A1 (The University of Tokyo, priority 2020, published 2023)

System: human placenta
Assay: Human placental perfusion model (ex vivo placental permeability)
Type: in vitro ADME
Details: FIG. 12A
Procedure: For this Example, the permeability of polymer micelles, low molecular compounds and polymers of different sizes through the human placenta was evaluated using a human placental perfusion model.
The human placental perfusion model was created according to NPL 4 (K. Shintaku et. al., Drug Metab. Dispos. 37 (2009) 962) and NPL 5 (J. R. Huston et. al., Clin, Pharmacol. Ther, 90 (2011) 67). […] DACH-platin encapsulating micelles (30 nm and 70 nm particle sizes) (DACH-platin dose: 85.4 mg/L), oxaliplatin (2.7 mg/L.) and Cy3-labeled 8-arm PEG (fluorescence intensity: 3,000 (RFU)) were perfused for 60 minutes, and 1 ml of each solution was recovered every 5 minutes from the vein on the fetus side. The platinum contents of the recovered samples from the oxaliplatin-and DACH-platin encapsulating micelle-administered groups were measured by inductively coupled […] mass spectrometry. The fluorescence intensities of the polymers were quantified by HPLC. […]
The human placental perfusion model was created according to NPL 4 (K. Shintaku et. al., Drug Metab. Dispos. 37 (2009) 962) and NPL 5 (J. R. Huston et. al., Clin. Pharmacol. Ther. 90 (2011) 67). […] The pH of the recovered sample was adjusted, releasing the nicotinamide, and the nicotinamide in the solution was measured by HPLC (detector: EXTREMA by JASCO Corp., column: TSKgel ODS-120H by Tosoh Corp., 1.9 μm). […]

Q: For `O=C1[O][Pt]2([NH][C@@H]3CCCC[C@H]3[NH]2)[O]C1=O` [oxaliplatin], which “accumulation in the placenta” value (human placental perfusion) is on record?
A: Its value is “accumulation of oxaliplatin in the placenta”.

Q: What about the “permeation through the placenta” value (perfused for 60 minutes, fetus-side vein samples) of the same compound?
A: Its value is “permeated the placenta”.
